Tested on: DNA polymerase (JDF-3 P41OL/A485T)
Assay: Assay for incorporation of chain terminators (primer extension, denaturing PAGE on ABI 377 sequencer)
Format: biochemical
Details: for terminator/dNTP ratio giving a similar pattern (signal strength and length): FIG. 8, ddATP lane 2, PME-App lane 3, dNTPs each at 50 μM, 25 cycles
Protocol: Reactions (20 μl) consisted of 0.5 pmol fluorescein-labeled primer pFI-20, 1 pmol pBluescript II, 5 U DNA polymerase (JDF-3 P41OL/A485T), all four dNTPs (each at 50 μM) and varying concentrations of only ddATP or PME-App in 20 mM Tris pH 8.8, 10 mM (NH4)2SO4, and 2 mM MgSO4. Reactions were incubated in a Perkin-Elmer 9600 for 25 cycles as follows: 95° C. for 30 s, 50° C. for 30 s and 72° C. for 4 min. The reactions were quenched with ice-cold 0.2 M EDTA (final concentration), dried, and the pellets dissolved in a 3:1 formamide: EDTA/blue dextran. Reactions were then analyzed by 6% denaturing PAGE on an ABI 377 sequencer.
The relative ratio can be determined more exactly by repeating the reactions over a narrower range of ratios.

SMILES | terminator/dNTP ratio giving a similar pattern (signal strength and length) | relative incorporation efficiency of ddATP versus PME-App (ddATP better than PME-App, from comparison of lane patterns in FIG. 8, all four dNTPs each at 50 μM) [fold]
Nc1ncnc2c1ncn2CCOCP(=O)(O)OP(=O)(O)OP(=O)(O)O [PME-App, PME-adenine diphosphate] | 1/5 | –
Nc1ncnc2c1ncn2[C@H]1CC[C@@H](COP(=O)(O)OP(=O)(O)OP(=O)(O)O)O1 [ddATP] | 1/10 | 2

— patent US6858393B1, “Chain terminators for DNA synthesis” (Stratagene California, priority 2002, dated 2005)
